Data as given in publication PMC9322451 (Clinical Pharmacology in Drug Development, 2022).
Like-named read-outs stand apart in the source and are kept apart here.

Legend:
Caco‐2 monolayers = test system: Caco‐2 monolayers; set-up: method as in unpublished data; conditions: ref unpublished data; cited from earlier work
[1] = set-up: method as in unpublished data; conditions: oral or intravenous 14C‐brensocatib, rats; ref unpublished data; cited from earlier work
[2] = test system: organic anion and cation transporters; set-up: method as in unpublished data; conditions: ref unpublished data, read-out: half maximal inhibitory concentration; cited from earlier work
[3] = Phase 1 part A: PK after single and multiple once-daily oral doses; assay type: in vivo, human; conditions: for Dose-normalized AUClast / Dose-normalized AUCτ / Dose-normalized AUC∞ / Dose-normalized Cmax: geometric least squares mean; for concentration at 30 day / Tmax / half-life / AUC / AUC(0-inf) / AUC(0-t) / Cmax: human, plasma
Method: The study was conducted sequentially in 2 parts. […] Eligible participants were admitted to the clinical unit for single‐dose evaluation from days −2 to 2 and from days 29 to 31 for steady‐state PK and safety evaluation. Participants self‐administered daily doses after an overnight fast of at least 10 hours on days 4 to 30, with outpatient visits on days 3, 4, 7, 14, 21, 32, 33, and 61 (Figure S1).
For part A, blood samples for PK assessments were collected following administration on days 1 and 30 at 0 (predose), 0.5, 0.75, 1, 1.5, 2, 3, 4, 8, 12, 24, 48, and 72 hours after dosing. In addition, predose PK samples were collected on days 4, 7, 14, and 21. PK parameters following single and multiple once‐daily dosing were evaluated using noncompartmental analysis, including the AUC over a dosing interval (AUCτ), AUC from time 0 to the last time with quantifiable concentration (AUClast), AUC from time 0 to infinite time (AUC∞), maximum plasma concentration (Cmax), minimum plasma concentration, time to maximum plasma concentration (tmax), terminal elimination half‐life (t1/2), apparent total drug clearance following oral administration (CL/F), and predose concentration.
All statistical analyses were performed using SAS version 9.3 or higher (SAS Institute Inc., Cary, North Carolina). Analysis of PK data was performed using WinNonlin Professional Software version 8.0 or higher (Certara, LP, Princeton, New Jersey). […] Categorical data were summarized by race and treatment group in terms of number of participants with data at relevant time points, frequency counts, and percentages. PK concentrations below the limit of quantification (BLQ) at time 0 on days 1 and 30 were considered 0. Postdose BLQ data were considered missing for PK parameter calculation. For mean concentrations and graphic presentation, all BLQ data were imputed as 0.

[4] = Multiple dosing (Day 30), Japanese n = 23, 3 dose groups pooled
[5] = Multiple dosing (Day 30), White n = 24, 3 dose groups pooled
[6] = Single dose (Day 1), Japanese n = 25, 3 dose groups pooled
[7] = Single dose (Day 1), White n = 24, 3 dose groups pooled
[8] = po, 10 mg, Day 1, 10 mg, Japanese, mean (CV%)
[9] = po, 10 mg, Day 1, 10 mg, White, mean (CV%)

Cn1c(=O)oc2ccc(-c3ccc(C[C@@H](C#N)NC(=O)[C@@H]4CNCCCO4)cc3)cc21 [Brensocatib]
apparent permeability from apical side to basolateral side (Caco‐2 monolayers): 9.03 × 10^–6 cm/s
brensocatib in plasma, share of total radioactivity exposure [1]: > 80%
most abundant metabolite in plasma, share of total radioactivity exposure [1]: ≈ 3%
IC50 [2]: > 11 µM
Mean steady‐state CL/F ([3]; 10 mg, Japanese): 10.1 L/h
Mean steady‐state CL/F ([3]; 10 mg, White): 8.5 L/h
Mean steady‐state CL/F ([3]; 25 mg, Japanese): 6.4 L/h
Mean steady‐state CL/F ([3]; 25 mg, White): 7.0 L/h
Mean steady‐state CL/F ([3]; 40 mg, White): 6.5 L/h
Ctrough ([3]; Day 30, 10 mg once daily, Japanese, mean (CV%)): 15.64 (48.2) ng/mL
Ctrough ([3]; Day 30, 10 mg once daily, White, mean (CV%)): 31.65 (52.6) ng/mL
Ctrough ([3]; Day 30, 25 mg once daily, Japanese, mean (CV%)): 93.05 (72.3) ng/mL
Ctrough ([3]; Day 30, 25 mg once daily, White, mean (CV%)): 83.24 (48.2) ng/mL
Ctrough ([3]; Day 30, 40 mg once daily, Japanese, mean (CV%)): 81.86 (101.6) ng/mL
Ctrough ([3]; Day 30, 40 mg once daily, White, mean (CV%)): 92.95 (90) ng/mL
Dose-normalized AUClast [3, 4]: 172.9 (ng ‧ h/mL)/mg
Dose-normalized AUCτ [3, 4]: 107.6 (ng ‧ h/mL)/mg
Dose-normalized AUC∞ [3, 4]: 194.9 (ng ‧ h/mL)/mg
Dose-normalized Cmax [3, 4]: 8.5 (ng/mL)/mg
Dose-normalized AUClast [3, 5]: 243.8 (ng ‧ h/mL)/mg
Dose-normalized AUCτ [3, 5]: 144.8 (ng ‧ h/mL)/mg
Dose-normalized AUC∞ [3, 5]: 285.4 (ng ‧ h/mL)/mg
Dose-normalized Cmax [3, 5]: 10.6 (ng/mL)/mg
Dose-normalized AUClast [3, 6]: 94.0 (ng ‧ h/mL)/mg
Dose-normalized AUCτ [3, 6]: 62.5 (ng ‧ h/mL)/mg
Dose-normalized AUC∞ [3, 6]: 103.9 (ng ‧ h/mL)/mg
Dose-normalized Cmax [3, 6]: 6.1 (ng/mL)/mg
Dose-normalized AUClast [3, 7]: 118.8 (ng ‧ h/mL)/mg
Dose-normalized AUCτ [3, 7]: 75.4 (ng ‧ h/mL)/mg
Dose-normalized AUC∞ [3, 7]: 133.9 (ng ‧ h/mL)/mg
Dose-normalized Cmax [3, 7]: 6.9 (ng/mL)/mg
concentration at 30 day ([3]; oral, 10 mg, Day 30, 10 mg once daily, Japanese, mean (CV%), read-out: Cavg): 43.8 ng/mL
concentration at 30 day ([3]; oral, 10 mg, Day 30, 10 mg once daily, Japanese, mean (CV%), read-out: Cmin): 19.6 ng/mL
concentration at 30 day ([3]; oral, 10 mg, Day 30, 10 mg once daily, White, mean (CV%), read-out: Cavg): 49.4 ng/mL
concentration at 30 day ([3]; oral, 10 mg, Day 30, 10 mg once daily, White, mean (CV%), read-out: Cmin): 26.3 ng/mL
concentration at 30 day ([3]; oral, 25 mg, Day 30, 25 mg once daily, Japanese, mean (CV%), read-out: Cavg): 174 ng/mL
concentration at 30 day ([3]; oral, 25 mg, Day 30, 25 mg once daily, Japanese, mean (CV%), read-out: Cmin): 98.8 ng/mL
concentration at 30 day ([3]; oral, 25 mg, Day 30, 25 mg once daily, White, mean (CV%), read-out: Cavg): 161 ng/mL
concentration at 30 day ([3]; oral, 25 mg, Day 30, 25 mg once daily, White, mean (CV%), read-out: Cmin): 93.9 ng/mL
concentration at 30 day ([3]; oral, 40 mg, Day 30, 40 mg once daily, Japanese, mean (CV%), read-out: Cavg): 167 ng/mL
concentration at 30 day ([3]; oral, 40 mg, Day 30, 40 mg once daily, Japanese, mean (CV%), read-out: Cmin): 77.5 ng/mL
concentration at 30 day ([3]; oral, 40 mg, Day 30, 40 mg once daily, White, mean (CV%), read-out: Cavg): 269 ng/mL
concentration at 30 day ([3]; oral, 40 mg, Day 30, 40 mg once daily, White, mean (CV%), read-out: Cmin): 149 ng/mL
Tmax ([3]; oral, once‐daily administration, steady state, range over groups, read-out: Tmax): 1 to 1.8 h
half-life ([3]; oral, once‐daily administration, steady state, range over groups, read-out: elimination t1/2): 21.7 to 27.6 h
half-life ([3]; oral, range over groups (abstract), read-out: Elimination half‐life): 22 to 28 h
half-life ([3]; oral, single dose, Japanese participants, range over dose groups, read-out: Elimination t1/2): 18.4 to 22.4 h
half-life ([3]; oral, single dose, White participants, range over dose groups, read-out: Elimination t1/2): 21.5 to 24.5 h
Tmax ([3]; oral, single‐dose administration, range over groups, read-out: median tmax): 1 to 1.5 h
half-life ([3]; oral, steady state, Japanese participants, across the 3 dose groups, read-out: mean t1/2): 21.7 to 23.1 h
half-life ([3]; oral, steady state, White participants, across the 3 dose groups, read-out: mean t1/2): 22.9 to 27.6 h
AUC [3, 8]: 628 ng·h/mL
AUC(0-inf) [3, 8]: 1030 ng·h/mL
AUC(0-t) [3, 8]: 943 ng·h/mL
Cmax [3, 8]: 64.5 ng/mL
half-life ([3]; po, 10 mg, Day 1, 10 mg, Japanese, mean (CV%), read-out: t1/2 (converted)): 18.8 h
Tmax ([3]; po, 10 mg, Day 1, 10 mg, Japanese, median (range), read-out: Tmax): 1.02 h
AUC [3, 9]: 620 ng·h/mL
AUC(0-inf) [3, 9]: 1140 ng·h/mL
AUC(0-t) [3, 9]: 988 ng·h/mL
Cmax [3, 9]: 55.9 ng/mL
half-life ([3]; po, 10 mg, Day 1, 10 mg, White, mean (CV%), read-out: t1/2 (converted)): 25.7 h
Tmax ([3]; po, 10 mg, Day 1, 10 mg, White, median (range), read-out: Tmax): 1.01 h
